The values that follow come from patent publication US6897211B2, “Thienodibenzoazulene compounds as tumor necrosis factor inhibitors” (Pliva-Istrazivacki Institut d.o.o., priority 2000, dated 2005).

SMILES strings stand for the structures.

One data set concerns secretion of TNF-α and IL-1. In words: investigated tests: TNF-α and IL-1 secretion in human PBMC and mouse peritoneal macrophages in vitro, LPS-induced TNF-α/IL-1 secretion in mice, writhing test, LPS-induced shock in mice. The following applies: tests not specified per compound; active = IC-50 20 μM or lower (human PBMC), 10 μM or lower (mouse macrophages), 30% or higher TNF-α inhibition at 10 mg/kg p.o., analgetic activity same or better than acetyl salicylic acid, 40% or better survival at 30 mg/kg. For orientation: Writhing tests count abdominal constrictions after an irritant is injected.
With `CN(C)CCCOCc1cc2c(s1)-c1ccccc1Sc1ccccc1-2.Cl` [Example 21, [3-(1,8-dithia-dibenzo[e,h]azulene-2-ylmethoxy)-propyl]-dimethylamine hydrochloride], the “activity in at least two investigated tests” value (from here on “activity”) is reported as “activity in at least two investigated tests”.

Turning to `Cl.Fc1ccc2c(c1)-c1sc(COCCN3CCCCC3)cc1-c1ccccc1O2` [Example 19, 1-[2-(11-fluoro-8-oxa-1-thia-dibenzo[e,h]azulene-2-ylmethoxy)-ethyl]-piperidine hydrochloride], the “activity” value was “activity in at least two investigated tests”.

Consider `CN(C)CCCOCc1cc2c(s1)-c1ccccc1Oc1ccccc1-2.Cl` [Example 1, Dimethyl-[3-(8-oxa-1-thia-dibenzo[e,h]azulene-2-ylmethoxy)-propyl]-amine hydrochloride], for which the “activity” value is “activity in at least two investigated tests”.

Turning to `Cl.c1ccc2c(c1)Oc1ccccc1-c1sc(COCCN3CCCC3)cc1-2` [Example 5, 1-[2-(8-oxa-1-thia-dibenzo[e,h]azulene-2-ylmethoxy)-ethyl]-pyrrolidine hydrochloride], the “activity” value is recorded as “activity in at least two investigated tests”.

Test system in a further data set: not given
Assay: not given
Conditions: not given
`CN(C)CCCOCc1cc2c(s1)-c1cccc(Cl)c1Oc1ccccc1-2` [Example 6, [3-(9-chloro-8-oxa-1-thia-dibenzo[e,h]azulene-2-ylmethoxy)-propyl]-dimethyl-amine]: the melting point (commonly the temperature, or range, at which the solid turns liquid) lay within 124 to 128 °C.

For `Cl.c1ccc2c(c1)Oc1ccccc1-c1sc(COCCN3CCCCC3)cc1-2`, the melting point fell in the range of 117 to 123 °C.

Molecule `CN(C)CCOCc1cc2c(s1)-c1ccccc1Oc1ccccc1-2.Cl` gave a melting point of 131 to 133 °C.

As to `CN(C)CCCOCc1cc2c(s1)-c1ccccc1Oc1ccccc1-2.Cl` [Example 1, Dimethyl-[3-(8-oxa-1-thia-dibenzo[e,h]azulene-2-ylmethoxy)-propyl]-amine hydrochloride], the melting point lay within 120 to 122 °C.

`CN(C)CCOCc1cc2c(s1)-c1cccc(Cl)c1Oc1ccccc1-2` [Example 7, [2-(9-chloro-8-oxa-1-thia-dibenzo[e,h]azulene-2-ylmethoxy)-ethyl]-dimethyl-amine] came in with a melting point of 122 °C.

`Cl.c1ccc2c(c1)Oc1ccccc1-c1sc(COCCN3CCOCC3)cc1-2` had a melting point of 157 to 158 °C.
